Columns and labels:
Format in all cases: cell-based, human
[1] = tested on: Peripheral blood mononuclear cells, B cells; assay: BioMAP Diversity PLUS BT system (T cell dependent B cell activation)
Description: (§1) This study examined activities of small molecules discovered in dolphin serum that had protective profiles against diseases of aging which can impact quality of life and longevity. These molecules were tested across 12 human primary cell-based systems as part of DiscoverX's BioMAP Diversity Plus program. These systems are designed to model complex human tissue and disease biology of the vasculature, skin, lung, and inflammatory tissues. Quantitative measurements of biomarker activities across this broad panel, along with comparative analysis of biological activities of known bioactive agents were used to predict and compare the efficacy and function of the four compounds. Compounds were tested at four concentrations (740 nm and 2.2, 6.7 and 20 μM).
(§2) BioMAP panels consist of human primary cell-based systems designed to model different aspects of the human body in an in vitro format. The 12 systems in the Diversity PLUS panel allow test agent characterization in an unbiased way across a broad set of systems modeling various human disease states. BioMAP systems are constructed with one or more primary cell types from healthy human donors, with stimuli (such as cytokines or growth factors) added to capture relevant signaling networks that naturally occur in human tissue or pathological conditions. Vascular biology is modeled in both a Th1 (3C system) and a Th2 (4H system) inflammatory environment, as well as in a Th1 inflammatory state specific to arterial smooth muscle cells (CASM3C system). Additional systems recapitulate aspects of the systemic immune response including monocyte-driven Th1 inflammation (LPS system) or T cell stimulation (SAg system), chronic Th1 inflammation driven by macrophage activation (lMphg system) and the T cell-dependent activation of B cells that occurs in germinal centers (BT system). The BE3C system (Th1) and the BF4T system (Th2) represent airway inflammation of the lung, while the MyoF system models myofibroblast-lung tissue remodeling. Lastly, skin biology is addressed in the KF3CT system modeling Th1 cutaneous inflammation and the HDF3CGF system modeling wound healing.
(§3) Each test agent generates a signature BioMAP profile that is created from the changes in protein biomarker readouts within individual system environments. Biomarker readouts (7-17 per system) are selected for therapeutic and biological relevance, are predictive for disease outcomes or specific drug effects and are validated using agents with known mechanism of action (MoA). Each readout is measured quantitatively by immune-based methods that detect protein (e.g., ELISA) or functional assays that measure proliferation and viability. BioMAP readouts are diverse and include cell surface receptors, cytokines, chemokines, matrix molecules and enzymes.
(§4) The Diversity PLUS panel allows test agent characterization in an unbiased way across a broad set of systems modeling various human disease states. These systems are designed to model complex human tissue and disease biology of the vasculature, skin, lung, and inflammatory tissues.
(§5) BioMAP systems are constructed with one or more primary cell types from healthy human donors, with stimuli (such as cytokines or growth factors) added to capture relevant signaling networks that naturally occur in human tissue or pathological conditions. Vascular biology is modeled in both a Th1 (3C system) and a Th2 (4H system) inflammatory environment, as well as in a Th1 inflammatory state specific to arterial smooth muscle cells (CASM3C system). Additional systems recapitulate aspects of the systemic immune response including monocyte-driven Th1 inflammation (LPS system) or T cell stimulation (SAg system), chronic Th1 inflammation driven by macrophage activation (lMphg system) and the T cell-dependent activation of B cells that occurs in germinal centers (BT system).

[2] = tested on: Venular endothelial cells, peripheral blood mononuclear cells; assay: BioMAP Diversity PLUS LPS system (Th1 type chronic inflammation, monocyte activation); details: human cell system mimicking T-cell and monocyte driven chronic inflammation and cardiovascular diseases (FIG. 4)
Description: as §1, §2, §3, §4, §5

Dermal fibroblasts = assay: BioMAP Diversity PLUS HDF3CGF system (wound healing and matrix/tissue remodeling)
Description: as §1, §2, §3, §4, §5

[3] = tested on: Venular endothelial cells, peripheral blood mononuclear cells; assay: BioMAP Diversity PLUS SAg system (T cell stimulation, Th1 type chronic inflammation); details: for Significant log10 reduction compared to nontreated controls: T cell proliferation / Significant log10 reduction compared to nontreated controls: Monocyte chemoattractant protein 1 (MCP-1): SAg system; for T cell proliferation: concentrations ranging from 740 nm to 6.7 μM (FIG. 2)
Description: as §1, §2
as §3, with “enzymes. In total, the Diversity PLUS panel contains 148 biomarker readouts that capture biological changes that occur within the physiological context of the particular BioMAP system. Specific BioMAP activities have been correlated to in vivo biology, and multiparameter BioMAP profiles have been used to distinguish compounds based on MoA and target selectivity across diverse physiological systems.” for “enzymes.”
(§6) The Diversity PLUS panel allows test agent characterization in an unbiased way across a broad set of systems modeling various human disease states. These systems are designed to model complex human tissue and disease biology of the vasculature, skin, lung, and inflammatory tissues. Quantitative measurements of 148 biomarker activities across this broad panel, along with comparative analysis of biological activities from known bioactive agents, were used to predict and compare the efficacy and function of each selected compound at four concentrations (740 nm and 2.2, 6.7 and 20 μM). […]

[4] = tested on: Macrophages, venular endothelial cells; assay: BioMAP Diversity PLUS lMphg system (Th1 type chronic inflammation, macrophage activation); details: /Mphg system; 2.2 μM
Description: as §1, §2
as §3, with “enzymes. In total, the Diversity PLUS panel contains 148 biomarker readouts that capture biological changes that occur within the physiological context of the particular BioMAP system. Specific BioMAP activities have been correlated to in vivo biology, and multiparameter BioMAP profiles have been used to distinguish compounds based on MoA and target selectivity across diverse physiological systems.” for “enzymes.”
as §6

Lung fibroblasts = assay: BioMAP Diversity PLUS MyoF system (myofibroblast differentiation and tissue remodeling)
Description: as §1, §2
as §3, with “enzymes. In total, the Diversity PLUS panel contains 148 biomarker readouts that capture biological changes that occur within the physiological context of the particular BioMAP system. Specific BioMAP activities have been correlated to in vivo biology, and multiparameter BioMAP profiles have been used to distinguish compounds based on MoA and target selectivity across diverse physiological systems.” for “enzymes.”
as §6

[5] = human cell system mimicking T-cell driven chronic inflammation and autoimmune diseases

CCCCCCC=CCCCCCCCCC(=O)O [Compound 10-heptadecanoate]
Significant log10 reduction compared to nontreated controls: Secreted interleukin 2 (IL-2) ([1]; BT system, 6.7 μM): −0.11 log10

N[C@@H](CCC(=O)NCC(=O)O)C(=O)O [Gamma-glutamylglycine]
secretion of prostaglandin E2 (PGE2) [2]: lowered
decorin (Dermal fibroblasts; human cell system mimicking wound healing, remodeling, fibrosis and chronic inflammation (FIG. 7)): inhibitory activity
Significant log10 reduction compared to nontreated controls: T cell proliferation ([3]; 6.7 μM): −0.11 log10
Significant log10 reduction compared to nontreated controls: T cell proliferation ([3]; 20.0 μM): −0.07 log10
CD40 ([3]; human cell system mimicking T-cell driven chronic inflammation and autoimmune diseases, 740 nm, 2.2 μM, and 6.7 μM (FIG. 3)): lowered
T cell proliferation [3, 5]: decreased
Significant log10 reduction compared to nontreated controls: Secreted interleukin 17A ([1]; BT system, 0.7 μM): −0.17 log10
Significant log10 reduction compared to nontreated controls: Secreted interleukin 17A (IL-17A) ([1]; BT system, 2.2 μM): −0.17 log10
interleukin 17A (IL-17A) ([1]; human cell system mimicking asthma, autoimmunity and allergies (FIG. 5)): lowered

NC(=O)NCCCC[C@H](N)C(=O)O [Homocitrulline]
secretion of prostaglandin E2 (PGE2) [2]: lowered
interleukin 8 (IL-8) (Dermal fibroblasts; human cell system mimicking wound healing, remodeling, fibrosis and chronic inflammation (FIG. 8)): inhibitory activity
T cell proliferation [3, 5]: decreased

CC(=O)NCCc1c[nH]cn1 [N-acetylhistamine]
Significant log10 reduction compared to nontreated controls: Vascular cell adhesion molecule 1 (VCAM-1) (Dermal fibroblasts; HDF3CGF system, 6.7 μM): −0.08 log10
Significant log10 reduction compared to nontreated controls: Collagen III (Dermal fibroblasts; HDF3CGF system, 20.0 μM): −0.13 log10
Significant log10 reduction compared to nontreated controls: Vascular cell adhesion molecule 1 (VCAM-1) (Dermal fibroblasts; HDF3CGF system, 20.0 μM): −0.15 log10
Significant log10 reduction compared to nontreated controls: Monocyte chemoattractant protein 1 (MCP-1) [4]: −0.26 log10
Significant log10 reduction compared to nontreated controls: B cell proliferation ([1]; BT system, 2.2 μM): −0.12 log10
Significant log10 reduction compared to nontreated controls: B cell proliferation ([1]; BT system, 6.7 μM): −0.06 log10
Significant log10 reduction compared to nontreated controls: B cell proliferation ([1]; BT system, 20.0 μM): −0.08 log10
Significant log10 reduction compared to nontreated controls: Secreted interleukin 17A (IL-17A) ([1]; BT system, 20.0 μM): −0.19 log10
Significant log10 reduction compared to nontreated controls: Secreted interleukin 17F (IL-17F) ([1]; BT system, 20.0 μM): −0.42 log10
Significant log10 reduction compared to nontreated controls: Alpha smooth muscle actin (αSMA) (Lung fibroblasts; 0.7 μM): −0.05 log10
Significant log10 reduction compared to nontreated controls: Alpha smooth muscle actin (αSMA) (Lung fibroblasts; 2.2 μM): −0.06 log10
Significant log10 reduction compared to nontreated controls: Alpha smooth muscle actin (αSMA) (Lung fibroblasts; 6.7 μM): −0.11 log10
Significant log10 reduction compared to nontreated controls: Alpha smooth muscle actin (αSMA) (Lung fibroblasts; 20.0 μM): −0.09 log10

CCCCCCCCCCCCCCC(=O)O [Pentadecanoate (C15:0), pentadecanoate]
Significant log10 reduction compared to nontreated controls: 72-hour fibroblast proliferation (Dermal fibroblasts; HDF3CGF system, 6.7 μM): −0.67 log10
Significant log10 reduction compared to nontreated controls: Collagen I (Dermal fibroblasts; HDF3CGF system, 6.7 μM): −0.07 log10
Significant log10 reduction compared to nontreated controls: Plasminogen activation inhibitor 1 (PAI-1) (Dermal fibroblasts; HDF3CGF system, 6.7 μM): −0.08 log10
Significant log10 reduction compared to nontreated controls: 72-hour fibroblast proliferation (Dermal fibroblasts; HDF3CGF system, 20.0 μM): −1.1 log10
Significant log10 reduction compared to nontreated controls: Collagen I (Dermal fibroblasts; HDF3CGF system, 20.0 μM): −0.13 log10
Significant log10 reduction compared to nontreated controls: Collagen III (Dermal fibroblasts; HDF3CGF system, 20.0 μM): −0.13 log10
Significant log10 reduction compared to nontreated controls: Interferon gamma-induced protein 10 (IP-10)/CXCL10 (Dermal fibroblasts; HDF3CGF system, 20.0 μM): −0.14 log10
Significant log10 reduction compared to nontreated controls: Interferon-inducible T cell alpha chemoattractant (I-TAC)/CXCL11 (Dermal fibroblasts; HDF3CGF system, 20.0 μM): −0.17 log10
Significant log10 reduction compared to nontreated controls: Monokine induced by gamma interferon (MIG)/CXCL9 (Dermal fibroblasts; HDF3CGF system, 20.0 μM): −0.10 log10
Significant log10 reduction compared to nontreated controls: Plasminogen activation inhibitor 1 (PAI-1) (Dermal fibroblasts; HDF3CGF system, 20.0 μM): −0.13 log10
Significant log10 reduction compared to nontreated controls: Vascular cell adhesion molecule 1 (VCAM-1) (Dermal fibroblasts; HDF3CGF system, 20.0 μM): −0.28 log10
Significant log10 reduction compared to nontreated controls: Monocyte chemoattractant protein 1 (MCP-1) ([3]; 6.7 μM): −0.18 log10
Significant log10 reduction compared to nontreated controls: Monocyte chemoattractant protein 1 (MCP-1) ([3]; 20.0 μM): −0.15 log10
Significant log10 reduction compared to nontreated controls: Secreted interleukin 17A (IL-17A) ([1]; BT system, 2.2 μM): −0.25 log10
Significant log10 reduction compared to nontreated controls: Secreted interleukin 17F (IL-17F) ([1]; BT system, 2.2 μM): −0.16 log10
Significant log10 reduction compared to nontreated controls: Secreted immunoglobulin G (IgG) ([1]; BT system, 6.7 μM): −0.17 log10
Significant log10 reduction compared to nontreated controls: Secreted immunoglobulin G (IgG) ([1]; BT system, 20.0 μM): −0.55 log10
Significant log10 reduction compared to nontreated controls: Secreted interleukin 6 (IL-6) ([1]; BT system, 20.0 μM): −0.29 log10
Significant log10 reduction compared to nontreated controls: Secreted interleukin 17A (IL-17A) ([1]; BT system, 20.0 μM): −0.29 log10
Significant log10 reduction compared to nontreated controls: Secreted interleukin 17F (IL-17F) ([1]; BT system, 20.0 μM): −0.18 log10

From patent US11992473B2, “Compositions and methods for diagnosis and treatment of conditions related to the quality of aging and longevity” (Epitracker, Inc., priority 2018, dated 2024)
